Source: ChEMBL document CHEMBL4673291, “Synthesis and antiproliferative evaluation of novel 8-cyclopentyl-7,8-dihydropteridin-6(5H)-one derivatives as potential anticancer agents” (Bioorg Med Chem Lett, 2021)

What was measured:
[1] = system: HCT-116; test: Antiproliferative activity against human HCT-116 cells assessed as inhibition of cell proliferation measured after 48 hrs by MTT assay; format: functional, cell-based; details: HCT-116, 48 h
[2] = system: HT-29; test: Antiproliferative activity against human HT-29 cells assessed as inhibition of cell proliferation measured after 48 hrs by MTT assay; format: functional, cell-based; details: HT-29, 48 h
[3] = system: MDA-MB-231; test: Antiproliferative activity against human MDA-MB-231 cells assessed as inhibition of cell proliferation measured after 48 hrs by MTT assay; format: functional, cell-based; details: MDA-MB-231, 48 h
[4] = system: HEK293; test: Cytotoxicity against HEK293 cells assessed as inhibition of cell proliferation measured after 48 hrs by MTT assay; format: cell-based; details: Homo sapiens, HEK293, 48 h
[5] = system: HeLa; test: Antiproliferative activity against human HeLa cells assessed as inhibition of cell proliferation measured after 48 hrs by MTT assay; format: functional, cell-based
[6] = system: HeLa; test: Cell cycle arrest in human HeLa cells assessed as accumulation at G2/M phase at 6 uM measured after 24 hrs by flow cytometry analysis (reference value: 15.22 %); format: functional
[7] = system: HeLa; test: Cell cycle arrest in human HeLa cells assessed as accumulation at G2/M phase at 3 uM measured after 24 hrs by flow cytometry analysis (reference value: 15.22 %); format: functional
[8] = system: HeLa; test: Cell cycle arrest in human HeLa cells assessed as accumulation at S phase at 6 uM measured after 24 hrs by flow cytometry analysis (reference value: 17.44 %); format: functional
[9] = system: HeLa; test: Cell cycle arrest in human HeLa cells assessed as accumulation at G1/G0 phase at 3 uM measured after 24 hrs by flow cytometry analysis (reference value: 67.34 %); format: functional
[10] = system: HeLa; test: Cell cycle arrest in human HeLa cells assessed as accumulation at S phase at 12 uM measured after 24 hrs by flow cytometry analysis (reference value: 17.44 %); format: functional
[11] = system: HeLa; test: Cell cycle arrest in human HeLa cells assessed as accumulation at G1/G0 phase at 6 uM measured after 24 hrs by flow cytometry analysis (reference value: 67.34 %); format: functional
[12] = system: HeLa; test: Cell cycle arrest in human HeLa cells assessed as accumulation at G2/M phase measured after 24 hrs by flow cytometry analysis; format: functional, cell-based; details: dose 3-12 µM
[13] = system: HeLa; test: Cell cycle arrest in human HeLa cells assessed as accumulation at G1/G0 phase at 12 uM measured after 24 hrs by flow cytometry analysis (reference value: 67.34 %); format: functional
[14] = system: HeLa; test: Cell cycle arrest in human HeLa cells assessed as accumulation at G2/M phase at 12 uM measured after 24 hrs by flow cytometry analysis (reference value: 15.22 %); format: functional
[15] = system: HeLa; test: Cell cycle arrest in human HeLa cells assessed as accumulation at S phase at 3 uM measured after 24 hrs by flow cytometry analysis (reference value: 17.44 %); format: functional

IC50 [1] [µM] | IC50 [2] [µM] | IC50 [3] [µM] | IC50 [5] [µM] | SMILES | IC50 [4] [µM] | also measured
3.89 | 12.5 | 29.3 | > 30 | CN1C(=O)CN(C2CCCC2)c2nc(Nc3ccc(N4CCCCC4)cn3)ncc21 | > 30 | 
4.44 | 5.54 | 25 | > 30 | O=C1CN(C2CCCC2)c2nc(Nc3ccc(N4CCCCC4)cc3)ncc2N1 | 25.1 | 
> 30 |  | > 30 |  | COc1ccc(Nc2ncc3c(n2)N(C2CCCC2)CC(=O)N3)cc1 |  | 
8.43 | 5.04 | 22.7 | > 30 | CC1CCN(c2ccc(Nc3ncc4c(n3)N(C3CCCC3)CC(=O)N4)cc2)CC1 |  | 
12.3 |  | > 30 |  | COc1ccc(Nc2ncc3c(n2)N(C2CCCC2)CC(=O)N3C)cc1 |  | 
7.11 | 3.56 | 6.21 | 13.3 | CC(=O)c1c(C)c2cnc(Nc3ccc(N4CCNCC4)cn3)nc2n(C2CCCC2)c1=O [PALBOCICLIB] |  | 
> 30 | 11.3 | > 30 | > 30 | CC1CCN(c2ccc(Nc3ncc4c(n3)N(C3CCCC3)CC(=O)N4C)nc2)CC1 |  | 
9.05 | > 30 | > 30 | > 30 | CCN1C(=O)CN(C2CCCC2)c2nc(Nc3ccc(N4CCOCC4)cc3)ncc21 |  | 
23.6 | 28.4 | > 30 | > 30 | CN1C(=O)CN(C2CCCC2)c2nc(Nc3ccc(N4CCOCC4)cn3)ncc21 |  | 
25.3 | 22 | > 30 | > 30 | O=C1CN(C2CCCC2)c2nc(Nc3ccc(N4CCOCC4)cn3)ncc2N1 |  | 
12.2 | 5.22 | 26.1 | 21.3 | CN1CCN(c2ccc(Nc3ncc4c(n3)N(C3CCCC3)CC(=O)N4)cc2)CC1 | > 30 | 
9.5 | 22.8 | 25.1 | 26 | O=C1CN(C2CCCC2)c2nc(Nc3ccc(N4CCOCC4)cc3)ncc2N1 | > 30 | 
19.1 | > 30 | > 30 | > 30 | CCN1C(=O)CN(C2CCCC2)c2nc(Nc3ccc(N4CCC(C)CC4)cn3)ncc21 |  | 
5.4 | 24.4 | > 30 | > 30 | CCN1C(=O)CN(C2CCCC2)c2nc(Nc3ccc(N4CCC(C)CC4)cc3)ncc21 | > 30 | 
25.3 | > 30 | > 30 | > 30 | CC1CCN(c2ccc(Nc3ncc4c(n3)N(C3CCCC3)CC(=O)N4C)cc2)CC1 |  | 
3.29 | 7.56 | 10.3 | 6.75 | CN1CCN(c2ccc(Nc3ncc4c(n3)N(C3CCCC3)CC(=O)N4C)cc2)CC1 | 12.4 | Activity [6]: 48.98%; Activity [7]: 20.97%; Activity [8]: 3.9%; Activity [9]: 64.43%; Activity [10]: 0%; Activity [11]: 47.11%; Activity [12]: Dose-dependent effect; Activity [13]: 11.03%; Activity [14]: 88.97%; Activity [15]: 14.6%
5.47 | > 30 | > 30 | > 30 | CCN1C(=O)CN(C2CCCC2)c2nc(Nc3ccc(N4CCCCC4)cc3)ncc21 | > 30 | 
14.5 | 22 | 28.2 | 17.6 | CCN1C(=O)CN(C2CCCC2)c2nc(Nc3ccc(N4CCCCC4)cn3)ncc21 | > 30 | 
25.4 | > 30 |  | 20.7 | O=C1CN(Cc2ccccc2)c2nc(NCCc3ccccc3)ncc2N1 | > 30 | 
16.4 | 7.84 | 24.1 | 29.1 | CCN1C(=O)CN(C2CCCC2)c2nc(Nc3ccc(N4CCN(C)CC4)cn3)ncc21 | > 30 | 
> 30 | > 30 | > 30 | > 30 | O=C1CN(C2CCCC2)c2nc(Nc3ccc(N4CCNCC4)cn3)ncc2N1 |  | 
> 30 | > 30 | > 30 | > 30 | CC1CCN(c2ccc(Nc3ncc4c(n3)N(C3CCCC3)CC(=O)N4)nc2)CC1 |  | 
11 |  | > 30 |  | CCN1C(=O)CN(C2CCCC2)c2nc(Nc3ccc(OC)cc3)ncc21 |  | 
> 30 | 26.5 | > 30 | > 30 | CN1CCN(c2ccc(Nc3ncc4c(n3)N(C3CCCC3)CC(=O)N4)nc2)CC1 |  | 
7.96 | 10.3 | 26.2 | 28.3 | CCN1C(=O)CN(C2CCCC2)c2nc(Nc3ccc(N4CCN(C)CC4)cc3)ncc21 | > 30 | 
> 30 | 21.1 | > 30 | > 30 | O=C1CN(C2CCCC2)c2nc(Nc3ccc(N4CCCCC4)cn3)ncc2N1 |  | 
> 30 | 20.1 | > 30 | > 30 | CN1C(=O)CN(C2CCCC2)c2nc(Nc3ccc(N4CCOCC4)cc3)ncc21 |  | 
6.1 | 9.86 | 21.2 | 16.9 | CN1C(=O)CN(C2CCCC2)c2nc(Nc3ccc(N4CCCCC4)cc3)ncc21 | 25.3 | 
> 30 | 27.6 | > 30 | > 30 | CCN1C(=O)CN(C2CCCC2)c2nc(Nc3ccc(N4CCOCC4)cn3)ncc21 |  | 
9.73 | 11.1 | 23.7 | 13.1 | CN1CCN(c2ccc(Nc3ncc4c(n3)N(C3CCCC3)CC(=O)N4C)nc2)CC1 |  | 
